Data reported in patent US20080200489A1, “Combination of Organic Compounds” (priority 2005, published 2008).

Key:
Bcr-AblE255K = test: Western analyses of Bcr-Abl levels, BaF3/Bcr-AblE255K cells; format: cell-based, mouse
[1] = tested on: primary, imatinib-resistant CML cells; test: Loss of viability / apoptosis of primary imatinib-resistant CML-BC cells; format: cell-based, human; details: for sensitivity of sample 7: Compound (II) at lower concentrations; for apoptosis of cells: sample no. 9 (Bcr-AblT315I)
Method: Primary CML-BC cells and NBMCs: […] Additionally, NBMCs are harvested and purified. Informed consents are signed by all patients to allow use of their cells for these experiments, as part of a clinical protocol approved by the University of South Florida Institutional Review Board (IRB). Sequencing of Bcr-Abl in CML-BC cells: […] Total RNA (5 μg) is reverse transcribed with a first-strand cDNA synthesis kit (Invitrogen). Reverse transcribed cDNAs are used in polymerase chain reaction (PCR) amplifications to amplify a fragment of Bcr-Abl that included the Bcr junction region and the c-Abl kinase region. The amplified sequences are agarose gel-purified and cloned into pCR4-TOPO plasmid. The resulting plasmids are transformed into Escherichia coli Mach1 cells (Invitrogen) overnight at 37° C. Ten colonies for each sample are checked by colony PCR and subcultured for plasmid isolation. Isolated plasmids are sequence verified with T3 and T7 primers for c-Abl kinase domain mutations. Assessment of percentage of non-viable cells: Cells are stained with trypan blue (Sigma, St Louis, Mo.). […] Apoptosis assessment by annexin V staining: Untreated and drug-treated cells are stained with annexin V and PI, and the percentage of apoptotic cells is determined by flow cytometry. Analysis of synergism between Compound (II) and Compound (V) in inducing apoptosis of K562 and LAMA-84 cells is performed by Median Dose-Effect analysis of Chou and Talalay using the commercially-available software (Calcusyn; Biosoft, Ferguson, Mo.).

BaF3/Bcr-AblT315I cells = test: Apoptosis of BaF3 cells expressing Bcr-AblT315I; format: cell-based, mouse
Method: Mouse pro-B BaF3 cells are cultured in complete RPMI-1640 media supplemented with 10% WEHI medium as the source of IL-3. […] Following these treatments, cells or cell pellets are washed free of the drug(s) prior to the performance of the studies.
Site-directed mutagenesis and nucleofection: Three p210 Bcr-Abl constructs are used in the current studies. The p210 Bcr-Abl WT and p210 Bcr-Abl (T315I) constructs are generated. […] For nucleofection of the p210 Bcr-Abl constructs into BaF3 cells, 5 million BaF3 cells in 100 μL Nucleofector solution V (Amaxa, Gaithersburg, Md.) are mixed with 5 μg p210 Bcr-Abl WT, p210 Bcr-Abl (T315I), or p210 Bcr-Abl (E255K) in a cuvette and nucleofected using program G-16. Following nucleofection, the cells are incubated at a concentration of 1×10^6 cells/mL in complete RPMI-1640 media supplemented with 10% WEHI medium as the source of IL-3, overnight, to recover. Stable transfectants of BaF3 cells expressing the WT or mutant form of Bcr-Abl (i.e., T315I or E255K) are maintained in RPMI 1640 supplemented with 10% serum, 1.0 U/mL penicillin, 1 μg/mL streptomycin and 0.75 mg/mL G418. Stably expressing cells are then further selected by removal of IL-3. After confirmation of Bcr-Abl expression by immunoblot analysis, cells are used for the studies described herein.

BaF3/Bcr-AblE255K cells = test: Apoptosis of BaF3 cells expressing Bcr-AblE255K; format: cell-based, mouse
Description: (§1) Cell lines and cell culture: Bcr-Abl-expressing, CML LAMA-84 and K562 cells are obtained from American Tissue Culture Collection (Manassas, Va.) and maintained in culture in RPMI medium containing 10% fetal bovine serum and passaged twice a week. […] Following these treatments, cells or cell pellets are washed free of the drug(s) prior to the performance of the studies.
(§2) Site-directed mutagenesis and nucleofection: Three p210 Bcr-Abl constructs are used in the current studies. The p210 Bcr-Abl WT and p210 Bcr-Abl (T315I) constructs are generated. […] For nucleofection of the p210 Bcr-Abl constructs into BaF3 cells, 5 million BaF3 cells in 100 μL Nucleofector solution V (Amaxa, Gaithersburg, Md.) are mixed with 5 μg p210 Bcr-Abl WT, p210 Bcr-Abl (T315I), or p210 Bcr-Abl (E255K) in a cuvette and nucleofected using program G-16. […] Stably expressing cells are then further selected by removal of IL-3. After confirmation of Bcr-Abl expression by immunoblot analysis, cells are used for the studies described herein.
(§3) Apoptosis assessment by annexin V staining: Untreated and drug-treated cells are stained with annexin V and PI, and the percentage of apoptotic cells is determined by flow cytometry.

NBMCs = test: Loss of survival of NBMCs; format: cell-based; details: for loss of survival of NBMCs: 48 hours, mean of 2 samples
Description: Primary CML-BC cells and NBMCs: Leukemia cells from the peripheral blood and/or bone marrow of 10 patients who had met the clinical criteria of imatinib-resistant Ph chromosome-positive CML-BC (Imatinib-resistant Philadelphia chromosome-positive chromic myeloid leukaemia-blast crisis) are harvested and purified. Additionally, NBMCs are harvested and purified. Informed consents are signed by all patients to allow use of their cells for these experiments, as part of a clinical protocol approved by the University of South Florida Institutional Review Board (IRB).
Assessment of percentage of non-viable cells: Cells are stained with trypan blue (Sigma, St Louis, Mo.).

Bcr-Abl [2] = test: Western analyses of Bcr-Abl levels, BaF3/Bcr-Abl cells; format: cell-based, mouse
LAMA-84 cells = test: Apoptosis assessment by annexin V staining, LAMA-84 cells; format: cell-based, human; details: for apoptosis of LAMA-84 cells: agent alone
Method: (§4) Cell lines and cell culture: Bcr-Abl-expressing, CML LAMA-84 and K562 cells are obtained from American Tissue Culture Collection (Manassas, Va.) and maintained in culture in RPMI medium containing 10% fetal bovine serum and passaged twice a week. Mouse pro-B BaF3 cells are cultured in complete RPMI-1640 media supplemented with 10% WEHI medium as the source of IL-3. For the studies described herein, logarithmically growing cells are exposed to the designated concentrations of Compound (II) and/or Compound (V). Following these treatments, cells or cell pellets are washed free of the drug(s) prior to the performance of the studies. Apoptosis assessment by annexin V staining: Untreated and drug-treated cells are stained with annexin V and PI, and the percentage of apoptotic cells is determined by flow cytometry. Analysis of synergism between Compound (II) and Compound (V) in inducing apoptosis of K562 and LAMA-84 cells is performed by Median Dose-Effect analysis of Chou and Talalay using the commercially-available software (Calcusyn; Biosoft, Ferguson, Mo.).

Bcr-Abl [3] = test: Western/immunoblot analyses of Bcr-Abl and downstream signaling proteins, LAMA-84 cells; format: cell-based, human; details: agent alone
Method: as §1
(§5) Western analyses of proteins: Western analyses are performed using specific antisera or monoclonal antibodies according to previously reported protocols, and the horizontal scanning densitometry is performed on Western blots.
Immunoprecipitation of Bcr-Abl and immunoblot analyses: Following the designated drug treatments, cells are lysed in lysis buffer (20 mM Tris [pH 8], […] sodium chloride, 1% NP40, 0.1 M sodium fluoride, 1 mM PMSF, 1 mM sodium orthovanadate, 2.5 μg/mL leupeptin, 5 μg/mL aprotinin) for 30 minutes on ice, and the nuclear and cellular debris is cleared by centrifugation. Cell lysates (200 μg) are incubated with the Abl-specific monoclonal antibody for 1 hour at 4° C. To this, washed Protein G agarose beads are added and incubated overnight at 4° C. The immunoprecipitates are washed 3 times in the lysis buffer, and proteins are eluted with the SDS sample loading buffer prior to the immunoblot analyses with specific antibodies against anti-Abl or antiphosphotyrosine antibody.

Bcr-AblT315I = test: Western analyses of Bcr-Abl levels, BaF3/Bcr-AblT315I cells; format: cell-based, mouse
BaF3/Bcr-Abl cells = test: Apoptosis of BaF3 cells expressing unmutated Bcr-Abl; format: cell-based, mouse; details: agent alone
Description: as §1, §2, §3

K562 cells = test: Apoptosis assessment by annexin V staining, K562 cells; format: cell-based, human; details: for apoptosis of K562 cells: agent alone
Method: as §4

Bcr-Abl [4] = test: Western blot analyses of total cell lysates of primary CML cells; format: cell-based, human; details: sample 9; 1000 nM alone
Method: Additionally, NBMCs are harvested and purified. Informed consents are signed by all patients to allow use of their cells for these experiments, as part of a clinical protocol approved by the University of South Florida Institutional Review Board (IRB).
as §5

[5] = any of the levels tested, alone

Cc1cn(-c2cc(NC(=O)c3ccc(C)c(Nc4nccc(-c5cccnc5)n4)c3)cc(C(F)(F)F)c2)cn1 [Compound (II), 4-methyl-3-[[4-(3-pyridinyl)-2-pyrimidinyl]amino]-N-[5-(4-methyl-1H-imidazol-1-yl)-3-(trifluoromethyl)phenyl]benzamide]
levels of p-CrkL (Bcr-AblE255K; agent alone): did not affect
levels of Bcr-Abl (Bcr-AblE255K; [5]): did not lower
sensitivity of sample 7 [1]: relatively resistant
apoptosis of cells ([1]; 2.0 μM): ineffective
loss of cell viability ([1]; samples 1 to 7, agent alone): dose dependent
loss of cell viability ([1]; samples 8, 9, and 10 with Bcr-AblT315I mutation, Compound (II) alone): did not augment
apoptosis of BaF3/Bcr-AblT315I cells (BaF3/Bcr-AblT315I cells; levels as high as 2,000 nM): resistant
apoptosis of BaF3/Bcr-AblE255K cells (BaF3/Bcr-AblE255K cells; 100 nM): ineffective
apoptosis of BaF3/Bcr-AblE255K cells (BaF3/Bcr-AblE255K cells; 200 nM): 26.0%
apoptosis of BaF3/Bcr-AblE255K cells (BaF3/Bcr-AblE255K cells; 500 nM): 43.0%
effect against NBMCs (NBMCs; up to 1.0 μM): no effect
levels of p-CrkL (Bcr-Abl [2]; agent alone): did not affect
levels of Bcr-Abl (Bcr-Abl [2]; [5]): did not lower
potency in inducing apoptosis relative to imatinib (LAMA-84 cells; LAMA-84 cells): approximately 10 fold
apoptosis of LAMA-84 cells (LAMA-84 cells): dose-dependent manner
expressions of c-Myc and Bcl-xL (Bcr-Abl [3]): lowered
levels of Bcr-Abl (Bcr-Abl [3]): without affecting
levels of p-AKT (Bcr-Abl [3]): inhibited
levels of p-CrkL (Bcr-Abl [3]): inhibited
levels of p-STAT5 (Bcr-Abl [3]): attenuated
levels of tyrosine phosphorylated Bcr-Abl (Bcr-Abl [3]): inhibited
p27 levels (Bcr-Abl [3]): induction
levels of p-CrkL (Bcr-AblT315I; agent alone): did not affect
levels of Bcr-Abl (Bcr-AblT315I; [5]): did not lower
apoptosis of BaF3/Bcr-Abl cells (BaF3/Bcr-Abl cells): dose-dependent manner
potency in inducing apoptosis relative to imatinib (K562 cells; K562 cells): approximately 10 fold
apoptosis of K562 cells (K562 cells): dose-dependent manner
levels of Bcr-Abl, p-CrkL, and p-STAT5 (Bcr-Abl [4]): little effect

Cc1[nH]c2ccccc2c1CCNCc1ccc(/C=C/C(=O)NO)cc1 [Compound (V), N-hydroxy-3-[4-[[[2-(2-methyl-1H-indol-3-yl)-ethyl]-amino]methyl]phenyl]-2E-2-propenamide]
Bcr-Abl levels (Bcr-AblE255K; 50 nM, 24 hours): lowered
sensitivity of sample 7 [1]: sensitive
apoptosis of cells ([1]; 50 nM alone): 42.0%
loss of cell viability ([1]; samples 1 to 7, agent alone): dose dependent
cell viability ([1]; samples 8, 9, and 10 with Bcr-AblT315I mutation, alone, 48 hours, dose-dependent): markedly inhibited
apoptosis of BaF3/Bcr-Abl T315I cells (BaF3/Bcr-AblT315I cells; 50 nM, 48 hours): approximately 30%
sensitivity of BaF3/Bcr-AblT315I cells to induced apoptosis (BaF3/Bcr-AblT315I cells; agent alone): as sensitive as BaF3/Bcr-Abl cells
apoptosis of BaF3/Bcr-Abl T315I cells (BaF3/Bcr-AblT315I cells; levels lower than 50 nM): less effective
loss of survival of NBMCs (NBMCs; 20 nM): 13.1%
loss of survival of NBMCs (NBMCs; 50 nM): 15.9%
Bcr-Abl levels (Bcr-Abl [2]; 50 nM, 24 hours): lowered
apoptosis of LAMA-84 cells (LAMA-84 cells): dose-dependent manner
Bcr-Abl levels (Bcr-AblT315I; 50 nM, 24 hours): lowered
apoptosis of K562 cells (K562 cells): dose-dependent manner
